Reference: US9695193B2, “Inhibitors of Plasmodium falciparum equilibrative nucleoside transporter type I as anti-parasitic compounds” (The Trustees of Columbia University in the City of New York, priority 2013, dated 2017)

Target: T1, PfENT1 (Plasmodium falciparum, UniProt Q8IDM6)
T1 construct: expressed in transfected cells; host or cells: fui1Δ yeast (Saccharomyces cerevisiae), co-expressing GFP
Assay type: cell-based
Conditions: primary HTS, compounds at 10 μM, 125 μM 5-FUrd
Procedure, shortened: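 fui1Δ yeast expressing PfENT1 and GFP were grown with 125 μM 5-fluorouridine, so growth reflects blocked 5-FUrd uptake. Compounds were screened at 10 μM. Growth scored by OD620 turbidity and GFP fluorescence, and hits had to be positive on both.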

T1 sequence (Q8IDM6 whole entry): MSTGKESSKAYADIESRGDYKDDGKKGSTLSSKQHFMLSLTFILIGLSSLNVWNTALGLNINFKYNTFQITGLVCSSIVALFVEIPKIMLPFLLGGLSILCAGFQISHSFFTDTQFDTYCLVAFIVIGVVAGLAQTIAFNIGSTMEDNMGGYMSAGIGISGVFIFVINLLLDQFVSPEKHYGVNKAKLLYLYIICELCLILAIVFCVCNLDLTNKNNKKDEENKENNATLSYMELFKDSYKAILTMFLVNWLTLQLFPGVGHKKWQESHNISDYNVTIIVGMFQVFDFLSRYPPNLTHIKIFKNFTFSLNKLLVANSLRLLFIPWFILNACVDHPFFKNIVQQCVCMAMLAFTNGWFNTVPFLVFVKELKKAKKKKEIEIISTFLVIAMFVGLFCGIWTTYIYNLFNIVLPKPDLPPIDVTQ

SMILES	Avg Normalized % maximal activity [%]
Cc1cc(C)nc(NC(=O)c2cc3c(s2)CCCC3)n1 [compound 139, N-(4,6-dimethyl-2-pyrimidinyl)-4,5,6,7-tetrahydro-1-benzothiophene-2-carboxamide]	3.27
CCOc1ccc2c(C)cc(=O)oc2c1C [compound 140, 7-ethoxy-4,8-dimethyl-2H-chromen-2-one]	3.21
Cc1cc(-c2ccccc2)nc(SCc2nc3ccccc3c(=O)[nH]2)n1 [compound 141, 2-{[(4-methyl-6-phenyl-2-pyrimidinyl)thio]methyl}-4(3H)-quinazolinone]	3.21
COc1ccc(-c2nnc(SCc3csc(C)n3)o2)cc1OC [compound 142, 2-(3,4-dimethoxyphenyl)-5-{[(2-methyl-1,3-thiazol-4-yl)methyl]thio}-1,3,4-oxadiazole]	3.09
CC(=O)c1ccc(NC(=O)CSc2nnc3c4ccccc4n(C)c3n2)cc1 [compound 143, N-(4-acetylphenyl)-2-[(5-methyl-5H-[1,2,4]triazino [5,6-b]indol-3-yl)thio]acetamide]	3.07
Cc1cc2nc(Nc3nc(=O)c(C)c(C)[nH]3)nc(C)c2cc1C [compound 144, 5,6-dimethyl-2-[(4,6,7-trimethyl-2-quinazolinyl)amino]-4(1H)-pyrimidinone]	3.04
O=C(Nc1cccc(-c2nc3ncccc3o2)c1)c1ccc2c(c1)OCCO2 [compound 145, N-(3-[1,3]oxazolo[4,5-b]pyridin-2-ylphenyl)-2,3-dihydro-1,4-benzodioxine-6-carboxamide]	3.02
Br.Cc1ccnc(Nc2nc(-c3cccnc3)cs2)c1 [compound 146, 4-methyl-N-[4-(3-pyridinyl)-1,3-thiazol-2-yl]-2-pyridinamine hydrobromide]	2.97
CC(=O)c1ccc(NC(=O)CSc2nc3cc(C)ccc3[nH]2)cc1 [compound 147, N-(4-acetylphenyl)-2-[(5-methyl-1H-benzimidazol-2-yl)thio]acetamide]	2.77
O=C(Nc1sc2c(c1CNC1CCCCC1)CCCC2)c1ccccc1 [compound 148, N-{3-[(cyclohexylamino)methyl]-4,5,6,7-tetrahydro-1-benzothien-2-yl} benzamide]	2.74
Cc1ccc(C(=O)c2cccc(NC(=O)c3cccs3)c2)cc1C [compound 149, N-[3-(3,4-dimethylbenzoyl)phenyl]-2-thiophene-carboxamide]	2.71
Cn1c(=O)oc2cc(S(=O)(=O)Nc3ccccc3Br)ccc21 [compound 150, N-(2-bromophenyl)-3-methyl-2-oxo-2,3-dihydro-1,3-benzoxazole-6-sulfonamide]	2.62
O=C(O)c1ccc(S(=O)(=O)N(Cl)Cl)cc1 [compound 151]	2.60
COc1ccc(Cl)cc1C(=O)Nc1cc(C)ccn1 [compound 152, 5-chloro-2-methoxy-N-(4-methyl-2-pyridinyl)benzamide]	2.56
CN(C(=O)c1cc2c(=O)n3ccccc3nc2n1C)C1CCCCC1 [compound 153, N-cyclohexyl-N,1-dimethyl-4-oxo-1,4-dihydropyrido [1,2-a]pyrrolo[2,3-d] pyrimidine-2-carboxamide]	2.37
COc1ccc(NC(=O)C2CCN(C(=O)c3ccc(F)cc3)CC2)c(OC)c1 [compound 154, N-(2,4-dimethoxyphenyl)-1-(4-fluorobenzoyl)-4-piperidinecarboxamide]	2.30
CN1CCN(S(=O)(=O)c2ccc(C(=O)Nc3ccccc3)cc2)CC1 [compound 155, 4-[(4-methyl-1-piperazinyl)sulfonyl]-N-phenylbenzamide]	2.20

SMILES	Avg Normalized % maximal activity [%]
CCCCC(=O)Nc1ccc(NC(=O)c2cccs2)cc1OC [compound 156, N-[3-methoxy-4-(pentanoylamino)phenyl]-2-thiophenecarboxamide]	2.17
Cc1ccc(NC(=O)CSc2nc3cccnc3[nH]2)c(C)c1 [compound 157, N-(2,4-dimethylphenyl)-2-(3H-imidazo[4,5-b]pyridin-2-ylthio)acetamide]	2.12
COc1ccccc1C(=O)Nc1nnc(COc2ccc(C)cc2)s1 [compound 158, 2-methoxy-N-{5-[(4-methylphenoxy)methyl]-1,3,4-thiadiazol-2-yl}benzamide]	2.12
COc1cccc(C(CC(=O)O)S(C)(=O)=O)c1 (stereo not drawn) [compound 159]	2.12
CC(=O)Nc1ccc2nc(SCC(=O)NC3CCCCC3)sc2c1 [compound 160]	2.09
CCOC(=O)CSc1nnc2c3ccccc3n(CC)c2n1 [compound 161]	2.08
COCc1cc(C)nc2sc(C(=O)Nc3ccc(NC(C)=O)cc3)c(N)c12 [compound 162, N-[4-(acetylamino)phenyl]-3-amino-4-(methoxymethyl)-6-methylthieno [2,3-b]pyridine-2-carboxamide]	2.04
COc1ccc(OC)c(NC(=O)COc2ccc3ccccc3c2)c1 [compound 163, N-(2,5-dimethoxyphenyl)-2-(2-naphthyloxy)acetamide]	2.04
O=[N+]([O-])c1ccc(C2Nc3c(F)cccc3C3C=CCC32)cc1 (stereo not drawn) [compound 164, 6-fluoro-4-(4-nitrophenyl)-3a,4,5,9b-tetrahydro-3H-cyclopenta[c]quinoline]	2.01
CCC(C(=O)NCc1cccs1)c1ccccc1 (stereo not drawn) [compound 165, 2-phenyl-N-(2-thienylmethyl)butanamide]	2.01
O=c1c2c3nc4ccccc4nc3n(Cc3ccco3)c2ncn1Cc1ccco1 [compound 166]	1.98
O=C(Nc1c(-c2ccccc2)nc2ccc(Cl)cn12)c1ccccc1 [compound 167, N-(6-chloro-2-phenylimidazo [1,2-a]pyridin-3-yl)benzamide]	1.96
CC(=O)Nc1ccc(NC(=O)CSc2nc3ccccc3s2)cc1 [compound 168, N-[4-(acetylamino)phenyl]-2-(1,3-benzothiazol-2-ylthio)acetamide]	1.93
Cc1ccc(NC(=O)Nc2ccc(F)cc2)nc1 [compound 169, N-(4-fluorophenyl)-N′-(5-methyl-2-pyridinyl)urea]	1.85
O=C(c1cc2nc3c(c(C(F)(F)F)n2n1)CCc1ccccc1-3)N1CCCC1 [compound 170, 10-(1-pyrrolidinyl-carbonyl)-7-(trifluoromethyl)-5,6-dihydrobenzo[h] pyrazolo[5,1-b] quinazoline]	1.74
COc1ccc(OC)c(NC(=O)CC2Nc3cc(C)c(C)cc3NC2=O)c1 (stereo not drawn) [compound 171, N-(2,5-dimethoxyphenyl)-2-(6,7-dimethyl-3-oxo-1,2,3,4-tetrahydro-2-quinoxalinyl)acetamide]	1.60
